{"source": "patent US5484725A", "about": "“Norbornane type ester hydrolase from Acetobacter pasteurianus” (Shionogi & Co., Ltd., priority 1993, dated 1996)", "key": {"[1]": {"system": "norbornane type ester hydrolase", "test": "Optically selective hydrolysis of (±)-exo-norbornane type esters by purified enzyme, optical resolution GC", "type": "biochemical, Acetobacter pasteurianus ATCC 12873", "settings": "1% ester, 30° C., 30 minutes", "experimental": "Various kinds of the (±)-exo-norbornane type esters respectively comprising formyl, acetyl, propionyl, n-butyryl or isobutyryl as the acyl R in formula I were allowed to come in contact with an enzyme solution, respectively as a substrate. Each of the obtained products was extracted with an equal volume of chloroform. The extract was analyzed by gas chromatography using a column for optical resolution (produced by J & W Scientific). (-)-Norborneol was selectively produced in all the extracts. […] In detail, referring to FIG. 1, (+)-(1S, 2S, 4R)-exo-norbornyl acetate is hydrolysed to the corresponding (-)-norborneol by the use of the present enzyme. The obtained (-)-norborneol can be converted to (+)-d-norcamphor by oxidation. The remaining (-)-(1R, 2R, 4S)-exo-norbornyl acetate can be hydrolysed to the corresponding (+)-norborneol by the use of an alkali. The obtained (+)-norborneol can be converted to (-)-d-norcamphor by oxidation.\nThe purified enzyme obtained in Example 1 was allowed to come in contact with various kinds of 1% (±)-exo-norbornane type esters respectively including formyl, acetyl, propionyl, n-butyryl and isobutyryl as the acyl R in formula I. The reaction was conducted at 30° C. for 30 minutes. The resultant was extracted with an equal volume of chloroform. The extract was analyzed by gas chromatography using a column for optical resolution (produced by J & W Scientific). As is apparent from the results shown in Table 2, (-)-norborneol was enantio-selectively produced from any of the esters."}, "[2]": {"system": "E. coli JM103 including the plasmid pUNA-Hf", "test": "Optically selective deacetylation of exo-norbornyl acetate by E. coli JM103/pUNA-Hf cell suspension", "type": "cell-based", "settings": "1% substrate, 30° C., 15 minutes", "experimental": "(±)-Exo-norbornyl acetate used as a substrate was optically selectively deacetylated by E. coli JM103 including the plasmid pUNA-Hf as follows. The bacterial cells were collected from the cultured broth of E. coli JM103/pUNA-Hf as mentioned above by centrifugation, and suspended in an equal volume of a 0.1M phosphate buffer (pH 7.0). Then, 1% (±)-exo-norbornyl acetate was added to 1.5 ml of the obtained suspension, and the reaction was conducted at 30° C. for 15 minutes. The resultant reaction mixture was analyzed by the method described in item 5 of Example 2."}, "[3]": {"system": "E. coli JM109 transformed by using the plasmid pUNA-Hf", "test": "Hydrolysis of (±)-exo-norbornyl acetate by transformant E. coli JM109 with pUNA-Hf", "type": "cell-based", "settings": "1% substrate, 30° C., 10 minutes", "experimental": "E. coli JM109 was transformed by using the plasmid pUNA-Hf. […] Then, the transformant was mixed with a 1% (±)-exo-norbornyl acetate mixture and allowed to stand at 30° C. for 10 minutes. The resulting mixture was analyzed by the method described in item 5 of Example 2. […] Thus, the optical selectivity was confirmed to be as high as that of the enzyme derived from Acetobacter pasteurianus obtained in Example 1."}, "[4]": {"system": "norbornane type ester hydrolase", "test": "Effect of inhibitors on the enzyme (pNPA method)", "type": "biochemical, Acetobacter pasteurianus ATCC 12873", "settings": "5 mM inhibitor, phosphate buffer pH 7.0, 30° C., 2 hours, then pNPA method", "experimental": "The present enzyme was allowed to stand in phosphate buffers respectively including various inhibitors (5 mM) at pH 7.0 for 2 hours. Then, the activity of the enzyme was measured by the method described in item 3.\nThe above-mentioned activity measurement was performed with regard to 0.5 ml of the enzyme solution of 0.1M phosphate buffer (pH 7.0) containing 5 mM of one of the following inhibitors: ethylenediaminetetraacetic acid (EDTA), phenylmethylsulfonylfluoride (PMSF), N-tosyl-L-phenylalanyl chloromethyl ketone (TPCK), N-tosyl-L-lysyl chloromethyl ketone (TLCK), diisopropyl fluorophosphate (DFP), N-ethylmaleimide and iodoacetic acid. The enzyme solutions, including the respective inhibitors, were allowed to stand at 30° C. for 2 hours."}}, "data": [{"compound": "CCCC(=O)O[C@H]1C[C@@H]2CC[C@H]1C2", "note": "(relative stereo) [n-butyryl]", "values": [{"measurement": "Produced norborneol (+)-isomer", "setting": "[1]", "result": 0.29, "unit": "mg/mL"}, {"measurement": "Produced norborneol (-)-isomer", "setting": "[1]", "result": 2.30, "unit": "mg/mL"}]}, {"compound": "CC(=O)O[C@H]1C[C@@H]2CC[C@H]1C2", "note": "(relative stereo) [Acetyl, (±)-exo-norbornyl acetate]", "values": [{"measurement": "Produced norborneol (+)-isomer", "setting": "[1]", "result": 0.19, "unit": "mg/mL"}, {"measurement": "Produced norborneol (-)-isomer", "setting": "[1]", "result": 2.48, "unit": "mg/mL"}, {"measurement": "(+)-exo-norborneol produced", "setting": "[2]", "result": 0.15, "unit": "mg/mL"}, {"measurement": "(-)-exo-norborneol produced", "setting": "[2]", "result": 1.91, "unit": "mg/mL"}, {"measurement": "(+)-exo-norborneol produced", "setting": "[3]", "result": 0.15, "unit": "mg/mL"}, {"measurement": "(-)-exo-norborneol produced", "setting": "[3]", "result": 1.68, "unit": "mg/mL"}]}, {"compound": "O=CO[C@H]1C[C@@H]2CC[C@H]1C2", "note": "(relative stereo) [Formyl]", "values": [{"measurement": "Produced norborneol (+)-isomer", "setting": "[1]", "result": 0.15, "unit": "mg/mL"}, {"measurement": "Produced norborneol (-)-isomer", "setting": "[1]", "result": 1.49, "unit": "mg/mL"}]}, {"compound": "CCC(=O)O[C@H]1C[C@@H]2CC[C@H]1C2", "note": "(relative stereo) [Propionyl]", "values": [{"measurement": "Produced norborneol (+)-isomer", "setting": "[1]", "result": 0.45, "unit": "mg/mL"}, {"measurement": "Produced norborneol (-)-isomer", "setting": "[1]", "result": 3.39, "unit": "mg/mL"}]}, {"compound": "CC(C)C(=O)O[C@H]1C[C@@H]2CC[C@H]1C2", "note": "(relative stereo) [isobutyryl]", "values": [{"measurement": "Produced norborneol (+)-isomer", "setting": "[1]", "result": 0.69, "unit": "mg/mL"}, {"measurement": "Produced norborneol (-)-isomer", "setting": "[1]", "result": 2.76, "unit": "mg/mL"}]}, {"compound": "O=S(=O)(F)Cc1ccccc1", "note": "[PMSF, phenylmethylsulfonylfluoride]", "values": [{"measurement": "inhibition of the enzyme by inhibitor", "setting": "[4]", "result": "completely inhibited"}]}]}
